Laboratory results: publication PMC8092220, “Insights into the Relationship between Cobamide Synthase and the Cell Membrane” (mBio, 2021)

Target: T1, cobamide (5′ phosphate) synthase (CobS) (Salmonella enterica, UniProt Q05602)
T1 construct: CobS^WT reconstituted in proteoliposomes
Assay: DRaCALA with […]α-RP, CobS proteoliposomes (Kd […] for DHPC-solubilized CobS); also protection in limited trypsin proteolysis
Format: binding

T1 sequence (Q05602 whole entry): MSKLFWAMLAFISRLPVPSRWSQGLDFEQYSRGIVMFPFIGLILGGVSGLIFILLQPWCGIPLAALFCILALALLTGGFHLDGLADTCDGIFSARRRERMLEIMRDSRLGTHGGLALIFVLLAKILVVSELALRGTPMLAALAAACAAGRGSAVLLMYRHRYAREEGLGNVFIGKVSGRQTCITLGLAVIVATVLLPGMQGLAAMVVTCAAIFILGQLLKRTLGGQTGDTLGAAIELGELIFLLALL

Q: How did the Kd turn out when Cc1cc2ncn([C@H]3O[C@H](COP(=O)(O)O)[C@@H](O)[C@H]3O)c2cc1C [α-RP, N1-(5-phospho-alpha-D-ribosyl)-5,6-dimethylbenzimidazole] was run?
A: 580 nM
